Earlier results on one sequence are cited in patent US20260008814A1, “DEVELOPMENT OF PEPTIDES WITH ANTI-CANCER AND ANTIMICROBIAL PROPERTIES” (YILDIZ TEKNIK ÜNIVERSITESI DÖNER SERMAYE ISLETME MÜD, priority 2023, published 2026).

In the series the test system is F. nucleatum attachment and invasion of HCT116.

In the case of ASANWTIQYND, the “inhibition of F. nucleatum attachment and invasion” value was “inhibitory peptide”.
